Source: US20050090433A1 (priority 2002, published 2005)
Converted amounts (≈) assume the structure as drawn. Where two headings read alike, the source gives them in different places.

Tests used:
S. aureus = assay: Dalbavancin MIC, baseline isolates of SSTI trial; assay type: cell-based; settings: MITT
Streptococcus pyogenes = assay: Dalbavancin MIC, baseline isolates of SSTI trial; assay type: cell-based; settings: read-out: Dalbavancin MIC, Streptococcus pyogenes, MITT, two-dose group
Human albumin = Human albumin (Homo sapiens, UniProt P02768); settings: pH 7.4
Protocol: Integrated heat effects, after correction for heats of dilution, were analyzed by non-linear regression using a simple single-site binding model with the standard Microcal ORIGIN software package. Raw data (μcal/sec) for each injection were integrated to give the total heat effect per addition, then divided by amount of injectant to give kcal/mole of injectant. The same integration was applied for control dilution effects, and this was subtracted from the actual titration data. This provided a differential of the binding curve in which the extent of binding is proportional to the total heat liberated (or absorbed). This was then analyzed by non-linear regression methods in terms of various standard binding models.

Group B streptococcus = assay: Dalbavancin MIC, baseline isolates of SSTI trial; assay type: cell-based
[1] = system: Miscellaneous Streptococcus and nontypeable strains; assay: Dalbavancin MIC, baseline isolates of SSTI trial; assay type: cell-based; settings: for Dalbavancin MIC, Miscellaneous Streptococcus and nontypeable strains: MITT

Chain of Human albumin (P02768 25-609): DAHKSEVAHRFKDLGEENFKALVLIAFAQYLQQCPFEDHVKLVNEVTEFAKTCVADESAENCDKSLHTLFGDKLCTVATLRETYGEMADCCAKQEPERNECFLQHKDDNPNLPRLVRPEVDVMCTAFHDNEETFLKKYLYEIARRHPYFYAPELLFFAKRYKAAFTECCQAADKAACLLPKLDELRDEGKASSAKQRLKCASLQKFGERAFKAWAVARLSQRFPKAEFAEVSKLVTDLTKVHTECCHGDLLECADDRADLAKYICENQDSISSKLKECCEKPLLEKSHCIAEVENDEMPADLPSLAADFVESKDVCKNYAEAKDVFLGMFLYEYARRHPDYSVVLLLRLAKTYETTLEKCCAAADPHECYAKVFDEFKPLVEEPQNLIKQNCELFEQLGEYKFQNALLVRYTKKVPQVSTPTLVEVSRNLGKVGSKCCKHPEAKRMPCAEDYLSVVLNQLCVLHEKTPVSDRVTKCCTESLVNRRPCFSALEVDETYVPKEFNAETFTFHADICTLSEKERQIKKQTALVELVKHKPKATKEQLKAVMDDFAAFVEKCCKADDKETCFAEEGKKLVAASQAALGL

SMILES: CN[C@H]1C(=O)N[C@@H]2Cc3ccc(cc3)Oc3cc4cc(c3O[C@@H]3O[C@H](C(=O)O)[C@@H](O)[C@H](O)[C@H]3NC(=O)CCCCCCCCC(C)C)Oc3ccc(cc3Cl)[C@@H](O)[C@@H]3NC(=O)[C@H](NC(=O)[C@@H]4NC(=O)[C@@H](NC2=O)c2cc(cc(O)c2Cl)Oc2cc1ccc2O)c1ccc(O)c(c1)-c1c(O[C@H]2O[C@H](CO)[C@@H](O)[C@H](O)[C@@H]2O)cc(O)cc1[C@@H](C(=O)NCCCN(C)C)NC3=O [Dalbavancin]
- Dalbavancin MIC range, All S. aureus (S. aureus; standard of care group): 10 (0.016-0.25) mg/L
- Dalbavancin MIC, All S. aureus (S. aureus; two-dose group): 11 (0.12) mg/L
- MIC (Streptococcus pyogenes): 0.016 µg/mL (≈ 8.81 nM)
- Calculated percent Binding, Human albumin (Human albumin; 1 μM): 98.8%
- Calculated percent Binding, Human albumin (Human albumin; 10 μM): 98.8%
- Calculated percent Binding, Human albumin (Human albumin; 100 μM): 98.7%
- Calculated percent Binding, Human albumin (Human albumin; 165 μM): 98.6%
- Calculated percent Binding, Human albumin (Human albumin; 250 μM): 98.5%
- Calculated percent Binding, Human albumin (Human albumin; 500 μM): 98.0%
- Dalbavancin MIC, Group B streptococcus (Group B streptococcus; MITT, standard of care group): 2 (0.016) mg/L
- MIC (Group B streptococcus; Streptococcus, read-out: Dalbavancin MIC, Group B streptococcus, MITT, two-dose group): 0.016 µg/mL (≈ 8.81 nM)
- Dalbavancin MIC, Miscellaneous Streptococcus and nontypeable strains ([1]; standard of care group): 4 (0.016) mg/L
- Dalbavancin MIC, Miscellaneous Streptococcus and nontypeable strains ([1]; two-dose group): 2 (0.016) mg/L
- MIC ([1]; Streptococcus, read-out: Dalbavancin MIC, Miscellaneous Streptococcus and nontypeable strains, MITT, single dose group): 0.016 µg/mL (≈ 8.81 nM)
